How the values were obtained:
[1] = system: Mus musculus; test: Toxicity in human RPMI8226 cells xenografted SCID nude mouse assessed as induction of adverse events at 25 mg/kg, po dosed daily for 45 days; format: organism-based; details: in vivo, 1080 h
[2] = biological target: E3 ubiquitin-protein ligase Itchy homolog (Homo sapiens) (UniProt Q96J02); test: Inhibition of Itch (unknown origin) assessed as reduction in Itch-mediated ubiquitination in presence of E1 enzyme, E2 enzyme and ATP incubated for 20 mins by SDS-PAGE method
Chain of E3 ubiquitin-protein ligase Itchy homolog (Homo sapiens) (Q96J02 whole entry): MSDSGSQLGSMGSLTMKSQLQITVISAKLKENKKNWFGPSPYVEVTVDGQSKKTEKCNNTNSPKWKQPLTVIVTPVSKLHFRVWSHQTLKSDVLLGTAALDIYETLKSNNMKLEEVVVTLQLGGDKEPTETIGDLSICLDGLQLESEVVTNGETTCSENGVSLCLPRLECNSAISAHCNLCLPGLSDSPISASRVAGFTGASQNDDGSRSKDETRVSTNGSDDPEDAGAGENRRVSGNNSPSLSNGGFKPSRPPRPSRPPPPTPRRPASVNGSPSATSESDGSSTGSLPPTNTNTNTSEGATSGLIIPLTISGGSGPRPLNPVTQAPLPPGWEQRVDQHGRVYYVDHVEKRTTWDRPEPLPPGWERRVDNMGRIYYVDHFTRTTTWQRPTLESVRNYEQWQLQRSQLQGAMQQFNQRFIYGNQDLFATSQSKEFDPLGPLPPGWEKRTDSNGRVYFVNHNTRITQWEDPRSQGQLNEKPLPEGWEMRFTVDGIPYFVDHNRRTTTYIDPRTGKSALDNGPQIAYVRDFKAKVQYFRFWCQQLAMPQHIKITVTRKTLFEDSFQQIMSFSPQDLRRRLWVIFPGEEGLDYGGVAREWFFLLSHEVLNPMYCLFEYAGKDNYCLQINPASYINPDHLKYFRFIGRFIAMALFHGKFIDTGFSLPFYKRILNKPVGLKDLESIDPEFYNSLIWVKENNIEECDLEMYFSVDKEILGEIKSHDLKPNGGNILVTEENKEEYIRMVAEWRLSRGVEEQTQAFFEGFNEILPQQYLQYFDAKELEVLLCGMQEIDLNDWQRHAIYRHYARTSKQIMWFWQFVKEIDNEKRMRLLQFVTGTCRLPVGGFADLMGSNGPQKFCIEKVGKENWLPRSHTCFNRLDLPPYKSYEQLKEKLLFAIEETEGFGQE

[3] = system: HepG2; test: Antiproliferative activity against human HepG2 cells incubated for 48 hrs by SRB assay; format: functional; details: HepG2, 48 h
[4] = system: HL-60; test: Antiproliferative activity against human HL60 cells incubated for 48 hrs by SRB assay; format: functional; details: HL-60, 48 h
[5] = system: SK-MEL-5; test: Antiproliferative activity against human SK-MEL-5 cells incubated for 48 hrs by SRB assay; format: functional; details: SK-MEL-5, 48 h
[6] = species: Homo sapiens; test: Inhibition of UBE1/UbcH5c/MDM2/MDM2(Auto) (unknown origin) assessed as protein activity at […] by electrochemiluminescence based ubiquitin profiler panel assay; set-up: scale not given: the % may be the effect or the level left
[7] = species: Homo sapiens; test: Inhibition of UBE1/UbcH4/SCFbTrCP1/IkBa (unknown origin) assessed as protein activity at […] by electrochemiluminescence based ubiquitin profiler panel assay; set-up: scale not given: the % may be the effect or the level left
[8] = system: OVCAR-4; test: Antiproliferative activity against human OVCAR4 cells incubated for 48 hrs by SRB assay; format: functional; details: OVCAR-4, 48 h
[9] = species: Homo sapiens; test: Inhibition of UBE1/UbcH6/Parkin/p38/JTV-1 (unknown origin) assessed as protein activity at […] by electrochemiluminescence based ubiquitin profiler panel assay; set-up: scale not given: the % may be the effect or the level left
[10] = species: Homo sapiens; test: Inhibition of UBE1/UbcH5c/VHL/HIF-1a (unknown origin) assessed as protein activity at […] by electrochemiluminescence based ubiquitin profiler panel assay; set-up: scale not given: the % may be the effect or the level left
[11] = system: A498; test: Antiproliferative activity against human A498 cells incubated for 48 hrs by SRB assay; format: functional; details: A498, 48 h
[12] = species: Homo sapiens; test: Inhibition of UBE1/UbcH5c/MuRF1/Cardiac Troponin (unknown origin) assessed as protein activity at […] by electrochemiluminescence based ubiquitin profiler panel assay; set-up: scale not given: the % may be the effect or the level left
[13] = system: OVCAR-3; test: Antiproliferative activity against human OVCAR3 cells incubated for 48 hrs by SRB assay; format: functional; details: OVCAR-3, 48 h
[14] = system: Mus musculus; test: Toxicity in human RPMI8226 cells xenografted SCID nude mouse assessed as effect on body weight at 50 mg/kg, po dosed daily for 45 days; format: organism-based; details: in vivo, 1080 h
[15] = species: Homo sapiens; test: Inhibition of UBE1/UbcH4/MDM2/CK1d/p53 (unknown origin) assessed as protein activity at […] by electrochemiluminescence based ubiquitin profiler panel assay; set-up: scale not given: the % may be the effect or the level left
[16] = system: Ramos; test: Antiproliferative activity against human Ramos cells incubated for 48 hrs by SRB assay; format: functional
[17] = system: K562; test: Antiproliferative activity against human K562 cells incubated for 48 hrs by SRB assay; format: functional; details: K562, 48 h
[18] = species: Homo sapiens; test: Inhibition of UBE1/UbcH3/SCFbTrCP1/IkBa (unknown origin) assessed as protein activity at […] by electrochemiluminescence based ubiquitin profiler panel assay; set-up: scale not given: the % may be the effect or the level left
[19] = system: KB; test: Antiproliferative activity against human KB cells incubated for 48 hrs by SRB assay; format: functional
[20] = system: RPMI-8226; test: Antitumor activity against human RPMI8226 cells xenografted in SCID nude mouse assessed as inhibition of tumor growth at 50 mg/kg, po dosed daily for 45 days; format: functional; details: RPMI-8226, po, 1080 h, read-out: TGI
[21] = system: MOLT-4; test: Antiproliferative activity against human MOLT4 cells incubated for 48 hrs by SRB assay; format: functional; details: MOLT-4, 48 h
[22] = Antiproliferative activity against HUVEC incubated for 48 hrs by SRB assay; format: cell-based; details: human, HUVEC cells
[23] = system: A549; test: Antiproliferative activity against human A549 cells incubated for 48 hrs by SRB assay; format: functional; details: A549, 48 h
[24] = system: NCI-H460; test: Antiproliferative activity against human NCI-H460 cells incubated for 48 hrs by SRB assay; format: functional; details: NCI-H460, 48 h
[25] = system: MCF7; test: Antiproliferative activity against human MCF7 cells incubated for 48 hrs by SRB assay; format: functional; details: MCF7, 48 h
[26] = species: Homo sapiens; test: Inhibition of UBE1/UbcH13/Uev1A/CHIP/CHIP(Auto) (unknown origin) assessed as protein activity at […] by electrochemiluminescence based ubiquitin profiler panel assay; set-up: scale not given: the % may be the effect or the level left
[27] = species: Homo sapiens; test: Inhibition of UBE1/UbcH5a/VHL/HIF-1a (unknown origin) assessed as protein activity at […] by electrochemiluminescence based ubiquitin profiler panel assay; set-up: scale not given: the % may be the effect or the level left
[28] = species: Homo sapiens; test: Inhibition of UBE1/UbcH6/Parkin/Parkin(Auto) (unknown origin) assessed as protein activity at […] by electrochemiluminescence based ubiquitin profiler panel assay; set-up: scale not given: the % may be the effect or the level left
[29] = system: HCT-116; test: Antiproliferative activity against human HCT116 cells incubated for 48 hrs by SRB assay; format: functional; details: HCT-116, 48 h
[30] = Antiproliferative activity against NHDF incubated for 48 hrs by SRB assay; format: cell-based; details: human, NHDF cells
[31] = system: RPMI-8226; test: Antitumor activity against human RPMI8226 cells xenografted in SCID nude mouse assessed as inhibition of tumor growth at 25 mg/kg, po dosed daily for 45 days; format: functional; details: RPMI-8226, po, 1080 h, read-out: TGI
[32] = species: Homo sapiens; test: Inhibition of UBE1/UbcH5a/SCFFbw7/Cyclin E1 (unknown origin) assessed as protein activity at […] by electrochemiluminescence based ubiquitin profiler panel assay; set-up: scale not given: the % may be the effect or the level left

inhibition [2]: Dose-dependent effect
GI50 [3]: 3600 nM
GI50 [4]: 1600 nM
GI50 [5]: 210 nM
Activity [6]: 105%
Activity [7]: 91%
GI50 [8]: 1400 nM
Activity [9]: 79%
Activity [10]: 100%
Activity [12]: 92%
GI50 [13]: 1900 nM
Activity [15]: 71%
GI50 [16]: 890 nM
GI50 [17]: 1700 nM
Activity [18]: 102%
GI50 [19]: 4000 nM
GI50 [21]: 4000 nM
GI50 [23]: > 5000 nM
GI50 [24]: 2900 nM
GI50 [25]: 900 nM
Activity [26]: 65%
Activity [27]: 95%
Activity [28]: 61%
GI50 [29]: 4300 nM
Activity [32]: 100%
SMILES: O=C(Nc1ccncc1)c1ccc(CNC2=C(Cl)C(=O)c3ccccc3C2=O)cc1
Activity [1]: Non-Toxic
GI50 [11]: 3500 nM
Activity [14]: Non-Toxic
inhibition in vivo at 50 mg/kg [20]: 100%
GI50 at 48 h [22]: 16000 nM
GI50 at 48 h [30]: 6300 nM
inhibition in vivo at 25 mg/kg [31]: 98.3%

From ChEMBL document CHEMBL4130444, “1,4-Naphthoquinones as inhibitors of Itch, a HECT domain-E3 ligase, and tumor growth suppressors in multiple myeloma” (Eur J Med Chem, 2017)
